Test results published in patent publication US20140005153A1, “Off-Note Masking” (GIVAUDAN S. A., priority 2011, published 2014).

Tests used:
[1] = blind bench-top tasting panel, proteinaceous supplement; assay type: in vivo
Source text: (§1) The following compositions are made and tested blind. Using a blind bench-top tasting panel (consisting of 4 to 8 panelists), panelists were asked to record the sensory attribute differences between the control and example samples, specifically focusing on off-notes (reduction or differences).
Proteinaceous Supplement (GNC Pro Performance 100% Whey Protein)

[2] = blind bench-top tasting panel, soy yogurt; assay type: in vivo
Source text: as §1
Soy Yogurt (O'Soy Organic Soy Yogurt Strawberry Flavor—5 g Protein Per 4 oz Serving)

[3] = blind bench-top tasting panel, cocoa; assay type: in vivo
Source text: as §1
Cocoa (Dilute 10% in Water to Consume) (Kroger Cocoa Unsweetened)

[4] = blind bench-top tasting panel, fortified mayonnaise; assay type: in vivo
Description: as §1
Fortified Mayonnaise (Smart Balance Omega Plus Light Mayonnaise Dressing—Omega-3 (500 Mg Per 15 g Serving) and Plant Sterols (100 Mg Per 15 g Serving)

[5] = off-note / off-taste masking, lowest effective level; details: in vivo
Source text: (§2) There is also provided an orally-receivable or -ingestible composition comprising an off-note-masking proportion of 1-(2-hydroxyphenyl)-3-(pyridin-4-yl)propane-1-one or a salt thereof 1-(2-hydroxyphenyl)-3-(pyridin-4-yl)propane-1-one (hereinafter referred to as “Compound 1”) is disclosed in United States published application No. 2010/272656. In this publication, the compound is described as an effective sweetness enhancer. It is a surprising feature of this disclosure that the same compound can deliver an off-note- or off-taste-masking effect at a concentration far below the concentration at which it is perceived as sweet. The minimum level at which the sweetness enhancement effect of Compound 1 can be detected is 35 ppm, but the off-note- or off-taste-masking effect of the masker can be as low as 2.5 ppm. A practical maximum for off-note masking is 10 ppm.

[6] = sweetness enhancement detection level; details: in vivo
Source text: as §2

[7] = blind bench-top tasting panel, OTC syrup; assay type: in vivo
Description: as §1, with “differences). Over-the-Counter (OTC) Syrup (Kroger Daytime Cold/Flu Relief (Acetaminophen 325 mg per 15 mL; Dextromethorphan HBr 10 mg per 15 mL; Phenylephrine HCl 5 mg per 15 mL))” for “differences).”

[8] = 0.002% by weight in cocoa (unsweetened)
[9] = 0.0015% by weight in whey protein supplement

O=C(CCc1ccncc1)c1ccccc1O [Compound 1, 1-(2-hydroxyphenyl)-3-(pyridin-4-yl)propane-1-one]
2.5 ppm: off-note- or off-taste-masking effect can be as low as [5]
35 ppm: minimum level at which the sweetness enhancement effect can be detected [6]
preferred: panelist preference over the control ([1]; 0.003% by weight in whey protein supplement) | panelist preference over the control ([2]; 0.002% by weight in soy yogurt) | panelist preference over the control [3, 8] | panelist preference over the control ([4]; 0.00025% by weight in fortified mayonnaise) | panelist preference over the control ([7]; 0.003% by weight in OTC syrup)

CC1CCC(CCCC(=O)O)C1(C)C (centres unmarked) [Compound 2, 4-[2,2,3-trimethyl-cyclopentyl]-butanoic acid]
preferred: panelist preference over the control [1, 9] | panelist preference over the control ([2]; 0.002% by weight in soy yogurt) | panelist preference over the control [3, 8] | panelist preference over the control ([4]; 0.0005% by weight in fortified mayonnaise) | panelist preference over the control ([7]; 0.003% by weight in OTC syrup)

CCc1c(C)c2ccc(OC(C)C(=O)O)c(C)c2oc1=O (centres unmarked) [Compound 3, 2-[(3-ethyl-4,8-dimethyl-2-oxo-2H-chromen-7-yl)oxy]propanoic acid]
preferred: panelist preference over the control [1, 9] | panelist preference over the control ([2]; 0.001% by weight in soy yogurt) | panelist preference over the control ([3]; 0.001% by weight in cocoa (unsweetened)) | panelist preference over the control ([4]; 0.001% by weight in fortified mayonnaise) | panelist preference over the control ([7]; 0.002% by weight in OTC syrup)
